In US20250034171A1, “IMIDAZOPYRIDINE AMIDES AND RELATED COMPOUNDS FOR USE IN THE TREATMENT OF BACTERIAL INFECTIONS” (priority 2021, published 2025):
In brackets after ≈: the same amount, converted by molar mass. Like-named read-outs stand apart in the source and are kept apart here.

Test system: Mycobacterium tuberculosis strain H37Rv
Assay: Test 2: MIC determination against M. tuberculosis, resazurin fluorescence
Format: cell-based
Details: Test 2, M. tuberculosis H37Rv; for MIC90: read-out: Bacterial activity MIC90; for IC50: read-out: Bacterial activity pMIC50 (converted)
[1] = Mycobacterium tuberculosis, H37RV

## CCc1nc2n(c1C(=O)NCc1ccc(-c3nc4n(n3)CC[C@H](C(F)(F)F)C4)cc1)C[C@H](C)CC2 (single isomer, unassigned) [Compound 65]
[1]
  MIC90: 0.039 µM (≈ 0.019 µg/mL)
  IC50: 13500 pM

## CCc1nc2n(c1C(=O)NCc1ccc(-c3nc4n(n3)CC[C@@H](C(F)(F)F)C4)cc1)CC[C@H](C)C2 (single isomer, unassigned) [Compound 66]
[1]
  MIC90: 0.24 µM (≈ 0.117 µg/mL)
  IC50: 51300 pM

## CCc1nc2n(c1C(=O)NCc1ccc(-c3nc4n(n3)CC[C@H](C(F)(F)F)C4)cc1)CC[C@@H](C)C2 (single isomer, unassigned) [Compound 67]
[1]
  MIC90: 0.18 µM (≈ 0.0876 µg/mL)
  IC50: 40700 pM

## CCc1nc2n(c1C(=O)NCc1ccc(-c3nc4n(n3)CC[C@H](C(F)(F)F)C4)cc1)CC[C@H](C)C2 (single isomer, unassigned) [Compound 68]
[1]
  MIC90: 0.23 µM (≈ 0.112 µg/mL)
  IC50: 47900 pM

## CCc1nc2n(c1C(=O)NCc1ccc(-c3nc4n(n3)CC[C@H](C(F)(F)F)C4)cc1)C[C@@H](C)CC2 (single isomer, unassigned) [Compound 69]
  Bacterial activity pMIC50: 7.95
  MIC90: 0.031 µM (≈ 0.0151 µg/mL)

## CCc1nc2n(c1C(=O)NCc1ccc(-c3nc4n(n3)CC[C@@H](C(F)(F)F)C4)cc1)CC[C@@H](C)C2 (single isomer, unassigned) [Compound 70]
[1]
  MIC90: 0.23 µM (≈ 0.112 µg/mL)
  IC50: 56200 pM

## CCc1nc2n(c1C(=O)NCc1ccc(-c3nc4n(n3)CC[C@@H](C(F)(F)F)C4)cc1)C[C@H](C)CC2 (single isomer, unassigned) [Compound 71]
[1]
  MIC90: 0.024 µM (≈ 0.0117 µg/mL)
  IC50: 9550 pM

## CCc1nc2n(c1C(=O)NCc1ccc(-c3nc4n(n3)CC[C@@H](C(F)(F)F)C4)cc1)C[C@@H](C)CC2 (single isomer, unassigned) [Compound 72]
[1]
  MIC90: 0.042 µM (≈ 0.0204 µg/mL)
  IC50: 13800 pM

## CCc1nc2n(c1C(=O)NCc1ccc(-c3nc4n(n3)CC[C@H](C(F)(F)F)C4)cc1)C[C@@H](C)CC2 (single isomer, unassigned) [Compound 75]
  Bacterial activity pMIC50: 7.48
  MIC90: 0.086 µM (≈ 0.0418 µg/mL)

## CCc1nc2n(c1C(=O)NCc1ccc(-c3nc4n(n3)CC[C@@H](C(F)(F)F)C4)c(F)c1)CCCC2 (single isomer, unassigned) [Compound 76]
  Bacterial activity pMIC50: 7.55
  MIC90: 0.09 µM (≈ 0.0441 µg/mL)

## CCc1nc2ccccn2c1C(=O)NCc1ccc(-c2nc3n(n2)CC[C@@H](C(F)(F)F)C3)c(F)c1 (single isomer, unassigned) [Compound 78]
  Bacterial activity pMIC50: 8.08
  MIC90: 0.028 µM (≈ 0.0136 µg/mL)

## CCc1nc2ccccn2c1C(=O)NCc1ccc(-c2nc3n(n2)CC[C@H](C(F)(F)F)C3)c(F)c1 (single isomer, unassigned) [Compound 79]
  Bacterial activity pMIC50: 7.99
  MIC90: 0.035 µM (≈ 0.017 µg/mL)

## CCc1nn2c(c1C(=O)NCc1ccc(-c3nc4n(n3)CC[C@H](C(F)(F)F)C4)cc1)C[C@H](C)CC2 (single isomer, unassigned) [Compound 81]
[1]
  MIC90: 0.19 µM (≈ 0.0924 µg/mL)
  IC50: 57500 pM

## CCc1nn2c(c1C(=O)NCc1ccc(-c3nc4n(n3)CC[C@@H](C(F)(F)F)C4)cc1)C[C@@H](C)CC2 (single isomer, unassigned) [Compound 82]
[1]
  MIC90: 0.087 µM (≈ 0.0423 µg/mL)
  IC50: 30900 pM

## CCc1nn2c(c1C(=O)NCc1ccc(-c3nc4n(n3)CC[C@@H](C(F)(F)F)C4)cc1)C[C@H](C)CC2 (single isomer, unassigned) [Compound 83]
[1]
  MIC90: 0.23 µM (≈ 0.112 µg/mL)
  IC50: 63100 pM

## CCc1nc2ncc(C)cn2c1C(=O)NCc1ccc(-c2nc3n(n2)CCC(C)C3)cc1 (single isomer, unassigned) [Compound 94]
  Bacterial activity pMIC50: 7.86
  MIC90: 0.039 µM (≈ 0.0168 µg/mL)

## CCc1nc2ncc(C)cn2c1C(=O)NCc1ccc(-c2nc3n(n2)CC[C@@H](C(C)(F)F)C3)cc1 (single isomer, unassigned) [Compound 104]
  Bacterial activity pMIC50: 8.25
  MIC90: 0.015 µM (≈ 0.00719 µg/mL)

## CCc1nc2ncc(C)cn2c1C(=O)NCc1ccc(-c2nc3n(n2)CC[C@H](C(C)(F)F)C3)cc1 (single isomer, unassigned) [Compound 105]
  Bacterial activity pMIC50: 8.24
  MIC90: 0.014 µM (≈ 0.00671 µg/mL)

## CCc1nc2ncc(C)cn2c1C(=O)NCc1ccc(-c2cn3c(n2)CC(COC)CC3)cc1 (single isomer, unassigned) [Compound 118]
  Bacterial activity pMIC50: 7.48
  MIC90: 0.083 µM (≈ 0.0381 µg/mL)

## CCc1nc2n(c1C(=O)NCc1ccc(-c3nc4n(n3)CC[C@H](C(F)(F)F)C4)cc1)CC[C@@H](O)C2 (single isomer, unassigned) [Compound 131]
[1]
  MIC90: > 0.5 µM
  IC50: > 501000 pM

## CCc1nc2n(c1C(=O)NCc1ccc(-c3nc4n(n3)CC[C@H](C(F)(F)F)C4)cc1)CC[C@H](O)C2 (single isomer, unassigned) [Compound 132]
[1]
  MIC90: > 0.45 µM
  IC50: > 269000 pM

## CCc1nc2n(c1C(=O)NCc1ccc(-c3nc4n(n3)CC[C@H](C(F)(F)F)C4)cc1)CC[C@H](OC)C2 (single isomer, unassigned) [Compound 135]
[1]
  MIC90: > 0.44 µM
  IC50: > 224000 pM

## CCc1nc2n(c1C(=O)NCc1ccc(-c3nc4n(n3)CC[C@H](C(F)(F)F)C4)cc1)CC[C@@H](C(F)(F)F)C2 (single isomer, unassigned) [Compound 136]
[1]
  MIC90: > 0.5 µM
  IC50: > 501000 pM

## CCc1nc2n(c1C(=O)NCc1ccc(-c3nc4n(n3)CC[C@H](C(F)(F)F)C4)cc1)CC[C@H](C(F)(F)F)C2 (single isomer, unassigned) [Compound 137]
[1]
  MIC90: > 0.5 µM
  IC50: > 501000 pM

## CCc1nc2n(c1C(=O)NCc1ccc(-c3nc4n(n3)CC[C@H](C(F)(F)F)C4)cc1)CC[C@@H](OC)C2 (single isomer, unassigned) [Compound 139]
[1]
  MIC90: > 0.45 µM
  IC50: > 182000 pM

## CCc1nc2ncc(C(F)(F)F)cn2c1C(=O)NCc1ccc(-c2nc3n(n2)CC[C@H](C)C3)cc1 (single isomer, unassigned) [Compound 191]
[1]
  MIC90: > 0.5 µM
  IC50: > 501000 pM

## CCc1nc2ncc(C)cn2c1C(=O)NCc1ccc(-c2nc3n(n2)CCC(C(F)(F)F)C3)nn1 (stereo not shown) [Compound 41]
[1]
  MIC90: > 0.5 µM
  IC50: > 501000 pM

## CCc1nc2ncc(C)cn2c1C(=O)NCc1ccc(-c2nc3n(n2)CCC(C(F)(F)F)C3)nc1 (stereo not shown) [Compound 43]
[1]
  MIC90: 0.37 µM (≈ 0.179 µg/mL)
  IC50: 155000 pM

## CCc1nc2ncc(C)cn2c1C(=O)NCc1cc(C)c(-c2nc3n(n2)CCC(C(F)(F)F)C3)c(F)c1 (stereo not shown) [Compound 44]
[1]
  MIC90: 0.21 µM (≈ 0.108 µg/mL)
  IC50: 45700 pM

## CCc1nc2ncc(C)cn2c1C(=O)NCc1cnc(-c2nc3n(n2)CCC(C(F)(F)F)C3)c(F)c1 (stereo not shown) [Compound 45]
[1]
  MIC90: 1.05 µM (≈ 0.528 µg/mL)
  IC50: 245000 pM

## CCc1nc2ncc(C)cn2c1C(=O)NCc1cnc(-c2nc3n(n2)CCC(C(F)(F)F)C3)c(C)c1 (stereo not shown) [Compound 46]
[1]
  MIC90: > 0.5 µM
  IC50: > 501000 pM

## O=C(NCc1cnc(-c2nc3n(n2)CCC(C(F)(F)F)C3)c(F)c1)c1c(C(F)(F)F)nc2ccccn12 (stereo not shown) [Compound 47]
[1]
  MIC90: > 0.5 µM
  IC50: > 501000 pM

## CCc1nc2ncc(OC)cn2c1C(=O)NCc1ccc(-c2nc3n(n2)CC[C@@H](C(F)(F)F)C3)cc1 [Compound 48]
[1]
  MIC90: 0.026 µM (≈ 0.013 µg/mL)
  IC50: 8320 pM

## CCc1nc2ccc(F)cn2c1C(=O)NCc1ccc(-c2nc3n(n2)CC[C@@H](C(F)(F)F)C3)cc1 [Compound 52]
[1]
  MIC90: 0.16 µM (≈ 0.0778 µg/mL)
  IC50: 41700 pM

## O=C(NCc1ccc(-c2nc3n(n2)CC[C@@H](C(F)(F)F)C3)cc1)c1c(C(F)(F)F)nc2ncccn12 [Compound 53]
[1]
  MIC90: 0.036 µM (≈ 0.0183 µg/mL)
  IC50: 11000 pM

## O=C(NCc1ccc(-c2nc3n(n2)CC[C@@H](C(F)(F)F)C3)cc1)c1c(C(F)(F)F)nc2n1CCCC2 [Compound 54]
[1]
  MIC90: 0.22 µM (≈ 0.113 µg/mL)
  IC50: 72400 pM

## CCc1nc2ccccn2c1C(=O)NCc1ccc(-c2nc3n(n2)CC[C@@H](C(F)(F)F)C3)cc1 [Compound 55]
[1]
  MIC90: 0.0086 µM (≈ 0.00403 µg/mL)
  IC50: 2950 pM

## CCc1nc2ccccn2c1C(=O)NCc1ccc(-c2nc3n(n2)CC[C@H](C(F)(F)F)C3)cc1 [Compound 57]
[1]
  MIC90: 0.022 µM (≈ 0.0103 µg/mL)
  IC50: 6920 pM

## O=C(NCc1ccc(-c2nc3n(n2)CC[C@H](C(F)(F)F)C3)cc1)c1c(C(F)(F)F)nc2n1CCCC2 [Compound 58]
[1]
  MIC90: 0.39 µM (≈ 0.2 µg/mL)
  IC50: 95500 pM

## O=C(NCc1ccc(-c2nc3n(n2)CC[C@H](C(F)(F)F)C3)cc1)c1c(C(F)F)nc2ccccn12 [Compound 60]
[1]
  MIC90: 0.067 µM (≈ 0.0329 µg/mL)
  IC50: 17400 pM

## O=C(NCc1ccc(-c2nc3n(n2)CC[C@@H](C(F)(F)F)C3)cc1)c1c(C(F)F)nc2ccccn12 [Compound 61]
[1]
  MIC90: 0.036 µM (≈ 0.0177 µg/mL)
  IC50: 11000 pM

## CCc1nc2ccc(C(F)(F)F)cn2c1C(=O)NCc1ccc(-c2nc3n(n2)CC[C@@H](C(F)(F)F)C3)cc1 [Compound 63]
[1]
  MIC90: > 0.46 µM
  IC50: > 224000 pM

## CCc1nc2ccc(C(F)(F)F)cn2c1C(=O)NCc1ccc(-c2nc3n(n2)CC[C@H](C(F)(F)F)C3)cc1 [Compound 64]
[1]
  MIC90: > 0.5 µM
  IC50: > 501000 pM

## CCc1nc2ncc(OC(F)(F)F)cn2c1C(=O)NCc1ccc(-c2nc3n(n2)CC[C@H](C(F)(F)F)C3)cc1 [Compound 84]
[1]
  MIC90: > 0.38 µM
  IC50: > 93300 pM

## CCc1nc2ncc(OC(F)(F)F)cn2c1C(=O)NCc1ccc(-c2nc3n(n2)CC[C@@H](C(F)(F)F)C3)cc1 [Compound 85]
[1]
  MIC90: > 0.5 µM
  IC50: > 501000 pM

## CCc1nc2ncccn2c1C(=O)NCc1ccc(-c2nc3n(n2)CC[C@@H](C(F)(F)F)C3)c(C)c1 [Compound 86]
  Bacterial activity pMIC50: 6.98
  MIC90: 0.44 µM (≈ 0.213 µg/mL)

## CCc1nc2ncccn2c1C(=O)NCc1ccc(-c2nc3n(n2)CC[C@H](C(F)(F)F)C3)c(C)c1 [Compound 87]
  Bacterial activity pMIC50: 6.97
  MIC90: 0.47 µM (≈ 0.227 µg/mL)

## CCc1nc2ncc(C)cn2c1C(=O)NCc1ccc(-c2cn3c(n2)CCCC3)cc1 [Compound 88]
[1]
  MIC90: 0.099 µM (≈ 0.041 µg/mL)
  IC50: 37200 pM

## CCc1nc2nc(C)c(Cl)cn2c1C(=O)NCc1ccc(-c2cn3c(n2)CC(C(F)(F)F)CC3)cc1 (stereo not shown) [Compound 90]
[1]
  MIC90: 0.15 µM (≈ 0.0775 µg/mL)
  IC50: 60300 pM

## CCc1nc2nc(C)ccn2c1C(=O)NCc1ccc(-c2nc3n(n2)CCC(C)C3)cc1 (stereo not shown) [Compound 92]
[1]
  MIC90: 0.2 µM (≈ 0.0859 µg/mL)
  IC50: 61700 pM
